Results taken from US20240409585A1, “MACROCYCLIC IMMUNOMODULATORS” (priority 2021, published 2024).
Numbered stars: 1 amine (or outer) side, 2 acyl side, 3 side chain; on linkers, the order of the positions; unused ones are H or OH. Bridge positions count the residues as written; N and C are the ends. Square brackets hold non-standard residues; d marks the D form. Peptide text beside a SMILES is read from it. * marks the point of attachment. ξ: configuration not given here. Tyr(3-NO2) = N[C@@H](Cc1ccc(O)c([N+](=O)[O-])c1)C(=O)O; X39 = COc1cccc(-c2ccc(C[C@H](N[*:1])C(=O)[*:2])cc2)c1; Phe(4-NO2) = N[C@@H](Cc1ccc([N+](=O)[O-])cc1)C(=O)O; Phe(4-COOH) = N[C@@H](Cc1ccc(C(=O)O)cc1)C(=O)O; Bip = N[C@@H](Cc1ccc(-c2ccccc2)cc1)C(=O)O; Phe(3-Me) = Cc1cccc(C[C@H](N)C(=O)O)c1; dPhe(3-F) = N[C@H](Cc1cccc(F)c1)C(=O)O; Val(3-OH) = CC(C)(O)[C@H](N)C(=O)O; 4Pal = N[C@@H](Cc1ccncc1)C(=O)O; Cha = N[C@@H](CC1CCCCC1)C(=O)O; Cit = NC(=O)NCCC[C@H](N)C(=O)O; Thr(3ξ) = CC(O)[C@H](N)C(=O)O; NMeNle = CCCC[C@H](NC)C(=O)O; Dap(Me) = CNC[C@H](N)C(=O)O; ξTle = CC(C)(C)C(N)C(=O)O; Carboxymethyl = O=C(O)C*; NMeA = CN[C@@H](C)C(=O)O; Dab = NCC[C@H](N)C(=O)O

Molecular target: T1, PE-labeled human PD-L1-Ig binding to Jurkat cell line over-expressing human PD-1 (Jurkat-PD-1) (Homo sapiens, UniProt Q15116)
T1 construct: expressed in transfected cells; host or cells: Jurkat
Assay: Jurkat-PD-1 Cell Binding High-Content Screening Assay (CBA): Method 1
Conditions: Jurkat-hPD-1 cells, PE-labeled PD-L1-Ig 20 nM final; read-out: Jurkat HPDL1 PD1 IC50 (uM) (Method 1)

T1 sequence (Q15116 25-288): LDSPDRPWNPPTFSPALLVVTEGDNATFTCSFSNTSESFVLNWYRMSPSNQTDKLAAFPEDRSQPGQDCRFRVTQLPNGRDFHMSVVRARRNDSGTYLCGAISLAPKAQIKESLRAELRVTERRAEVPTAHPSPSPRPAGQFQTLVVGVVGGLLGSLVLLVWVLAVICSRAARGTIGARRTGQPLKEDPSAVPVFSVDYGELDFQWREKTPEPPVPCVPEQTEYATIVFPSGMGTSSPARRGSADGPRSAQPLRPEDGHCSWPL

Row | IC50 [µM] | Structure (SMILES)
1 | 0.18 | CC(C)C[C@@H]1NC(=O)[C@H](CCN)NC(=O)[C@@H](CC(C)C)NC(=O)[C@H](C)N(C)C(=O)[C@H](CCCNC(=N)N)NC(=O)[C@H](Cc2ccc(-c3ccccc3)cc2)NC(=O)[C@H](C(C)C)NC(=O)[C@H](Cc2c[nH]c3ccccc23)NC(=O)[C@H](CC(=O)O)NC(=O)[C@H](Cc2cnc[nH]2)NC(=O)[C@H](Cc2ccccc2)NC(=O)CSC[C@@H](C(=O)N[C@@H](C)C(N)=O)NC(=O)[C@H]([C@@H](C)O)NC(=O)[C@H](C(C)C)NC1=O [Compound 1130] ({CH2CO}-FHDWV[Bip]R[NMeA][dL][Dab]LVTCA-NH2; thioether N-14)
2 | 0.03 | Cc1cccc(C[C@@H]2NC(=O)[C@H](CC(=O)O)NC(=O)[C@H](Cc3ccc(OCC(=O)O)cc3)NC(=O)[C@H](Cc3ccncc3)NC(=O)CSC[C@@H](C(=O)N[C@@H](CCN)C(N)=O)NC(=O)[C@H](CC(=O)O)NC(=O)[C@H](C(C)(C)O)NC(=O)[C@H](CC3CCCCC3)NC(=O)[C@H](CCN)NC(=O)[C@@H](CC(C)C)NC(=O)[C@H](C)N(C)C(=O)[C@H](Cc3ccc(OCC(=O)O)cc3)NC(=O)[C@H](Cc3ccc(-c4ccccc4)cc3)NC(=O)[C@H](Cc3ccc(OCC(=O)O)cc3)NC2=O)c1 [Compound 2190] ({CH2CO}-[4Pal]Y(Carboxymethyl)D[Phe(3-Me)]Y(Carboxymethyl)[Bip]Y(Carboxymethyl)[NMeA][dL][Dab][Cha][Val(3-OH)]DC[Dab]-NH2; thioether N-14)
3 | 0.17 | COc1cccc(-c2ccc(C[C@@H]3NC(=O)[C@H](CC(C)C)NC(=O)[C@H](Cc4c[nH]c5ccccc45)NC(=O)[C@H](CC(=O)O)NC(=O)[C@H](Cc4ccc(O)cc4)NC(=O)[C@H](Cc4ccccc4)NC(=O)CSC[C@@H](C(=O)N[C@@H](C)C(N)=O)NC(=O)[C@H](CO)NC(=O)[C@H](C(C)C)NC(=O)[C@H](CC(C)C)NC(=O)[C@H](CC(N)=O)NC(=O)[C@@H](C)NC(=O)[C@H](C)N(C)C(=O)[C@H](C(C)C)NC3=O)cc2)c1 [Compound 1798] ({CH2CO}-FYDWL[X39]V[NMeA][dA]NLVSCA-NH2; thioether N-14)
4 | 0.02 | CC[C@H](C)[C@@H]1NC(=O)[C@H](Cc2ccc(-c3ccccc3)cc2)NC(=O)[C@H](C(C)C)NC(=O)[C@H](Cc2c[nH]c3ccccc23)NC(=O)[C@H](CC(=O)O)NC(=O)[C@H](Cc2ccc(C(=O)O)cc2)NC(=O)[C@H](Cc2ccncc2)NC(=O)CSC[C@@H](C(=O)N[C@@H](C)C(N)=O)NC(=O)[C@H]([C@@H](C)O)NC(=O)[C@H](C(C)C)NC(=O)[C@H](CC(C)C)NC(=O)[C@H](CCN)NC(=O)[C@@H](CC(C)C)NC(=O)[C@H](C)N(C)C1=O [Compound 1411] ({CH2CO}-[4Pal][Phe(4-COOH)]DWV[Bip]I[NMeA][dL][Dab]LVTCA-NH2; thioether N-14)
5 | 0.15 | CC(C)C[C@@H]1NC(=O)[C@H](CCN)NC(=O)[C@@H](CC(C)C)NC(=O)[C@H](C)N(C)C(=O)[C@H](CCCNC(=N)N)NC(=O)[C@H](Cc2ccc(-c3ccccc3)cc2)NC(=O)[C@H](C(C)C)NC(=O)[C@H](Cc2c[nH]c3ccccc23)NC(=O)[C@H](CC(=O)O)NC(=O)[C@H](Cc2ccc(O)cc2)NC(=O)[C@H](Cc2cnc[nH]2)NC(=O)CSC[C@@H](C(=O)N[C@@H](C)C(N)=O)NC(=O)[C@H]([C@@H](C)O)NC(=O)[C@H](C(C)C)NC1=O [Compound 1051] ({CH2CO}-HYDWV[Bip]R[NMeA][dL][Dab]LVTCA-NH2; thioether N-14)
6 | 0.04 | CCCC[C@H]1C(=O)N[C@@H](Cc2ccc(C(=O)O)cc2)C(=O)N[C@@H](CC(=O)O)C(=O)N[C@@H](Cc2c[nH]c3ccccc23)C(=O)N[C@@H](C(C)C)C(=O)N[C@@H](Cc2ccc(-c3ccccc3)cc2)C(=O)N[C@@H](C(C)O)C(=O)N(C)[C@@H](C)C(=O)N[C@H](CC(C)C)C(=O)N[C@@H](CCN)C(=O)N[C@@H](CC2CCCCC2)C(=O)N[C@@H](C(C)C)C(=O)N[C@@H](C(C)O)C(=O)N[C@H](C(=O)N[C@@H](CCN)C(N)=O)CSCC(=O)N1C (stereo partly drawn) [Compound 2206] ({CH2CO}-[NMeNle][Phe(4-COOH)]DWV[Bip][Thr(3ξ)][NMeA][dL][Dab][Cha]V[Thr(3ξ)]C[Dab]-NH2; thioether N-14)
7 | 0.01 | CC(C)C[C@@H]1NC(=O)[C@H](Cc2c[nH]c3ccccc23)NC(=O)[C@H](CC(=O)O)NC(=O)[C@H](Cc2ccc(O)cc2)NC(=O)[C@H](Cc2ccccc2)NC(=O)CSC[C@@H](C(=O)N[C@@H](C)C(N)=O)NC(=O)[C@H](CO)NC(=O)[C@H](CCCCN)NC(=O)[C@H](CC(C)C)NC(=O)[C@H](CC(N)=O)NC(=O)[C@@H](CC(C)C)NC(=O)[C@H](C)N(C)C(=O)[C@H](C(C)C)NC(=O)[C@H](Cc2ccc(-c3ccccc3)cc2)NC1=O [Compound 1536] ({CH2CO}-FYDWL[Bip]V[NMeA][dL]NLKSCA-NH2; thioether N-14)
8 | 0.01 | CC(C)C[C@@H]1NC(=O)[C@H](CCN)NC(=O)[C@@H](CC(C)C)NC(=O)[C@H](C)N(C)C(=O)[C@H](CCCNC(N)=O)NC(=O)[C@H](Cc2ccc(-c3ccccc3)cc2)NC(=O)[C@H](C(C)C)NC(=O)[C@H](Cc2c[nH]c3ccccc23)NC(=O)[C@H](CC(=O)O)NC(=O)[C@H](Cc2ccc(O)c([N+](=O)[O-])c2)NC(=O)[C@H](Cc2ccncc2)NC(=O)CSC[C@@H](C(=O)N[C@@H](C)C(N)=O)NC(=O)[C@H]([C@@H](C)O)NC(=O)[C@H](C(C)C)NC1=O [Compound 1336] ({CH2CO}-[4Pal][Tyr(3-NO2)]DWV[Bip][Cit][NMeA][dL][Dab]LVTCA-NH2; thioether N-14)
9 | 0.08 | CNC[C@@H]1NC(=O)[C@@H](CC(C)C)NC(=O)[C@H](C)N(C)C(=O)[C@H](CCCNC(N)=O)NC(=O)[C@H](Cc2ccc(-c3ccccc3)cc2)NC(=O)[C@H](C(C)C)NC(=O)[C@H](Cc2c[nH]c3ccccc23)NC(=O)[C@H](CC(=O)O)NC(=O)[C@H](Cc2ccc(O)cc2)NC(=O)[C@H](CC(N)=O)NC(=O)CSC[C@@H](C(=O)N[C@@H](C)C(N)=O)NC(=O)[C@H](C(C)O)NC(=O)[C@H](C(C)C)NC(=O)[C@H](CC(C)C)NC1=O (stereo partly drawn) [Compound 2039] ({CH2CO}-NYDWV[Bip][Cit][NMeA][dL][Dap(Me)]LV[Thr(3ξ)]CA-NH2; thioether N-14)
10 | 0.22 | CC(C)C[C@@H]1NC(=O)[C@H](CCCCN)NC(=O)[C@@H](CC(C)C)NC(=O)[C@H](C)N(C)C(=O)[C@H](CCCNC(=N)N)NC(=O)[C@H](Cc2ccc(-c3ccccc3)cc2)NC(=O)[C@H](C(C)C)NC(=O)[C@H](Cc2c[nH]c3ccccc23)NC(=O)[C@H](CC(=O)O)NC(=O)[C@H](Cc2ccc(O)cc2)NC(=O)[C@H](CC(N)=O)NC(=O)CSC[C@@H](C(=O)N[C@@H](CCC(=O)O)C(N)=O)NC(=O)[C@H]([C@@H](C)O)NC(=O)[C@H](C(C)C)NC1=O [Compound 1173] ({CH2CO}-NYDWV[Bip]R[NMeA][dL]KLVTCE-NH2; thioether N-14)
11 | 0.09 | CC(C)C[C@@H]1NC(=O)[C@H](CCN)NC(=O)[C@@H](CC(C)C)NC(=O)[C@H](C)N(C)C(=O)[C@H](CCCNC(=N)N)NC(=O)[C@H](Cc2ccc(-c3ccccc3)cc2)NC(=O)[C@H](C(C)C)NC(=O)[C@H](Cc2c[nH]c3ccccc23)NC(=O)[C@H](CC(=O)O)NC(=O)[C@H](Cc2ccc([N+](=O)[O-])cc2)NC(=O)[C@H](CC(N)=O)NC(=O)CSC[C@@H](C(=O)N[C@@H](C)C(N)=O)NC(=O)[C@H]([C@@H](C)O)NC(=O)[C@H](C(C)C)NC1=O [Compound 1188] ({CH2CO}-N[Phe(4-NO2)]DWV[Bip]R[NMeA][dL][Dab]LVTCA-NH2; thioether N-14)
12 | 0.01 | Cc1cccc(C[C@@H]2NC(=O)[C@H](CC(=O)O)NC(=O)[C@H](Cc3ccc(OCC(=O)O)cc3)NC(=O)[C@H](Cc3ccncc3)NC(=O)CSC[C@@H](C(N)=O)NC(=O)[C@H](CC(N)=O)NC(=O)[C@H](C(C)C)NC(=O)[C@H](CC3CCCCC3)NC(=O)[C@H](CCN)NC(=O)[C@@H](CC(C)C)NC(=O)[C@H](C)N(C)C(=O)[C@H](Cc3ccc(OCC(=O)O)cc3)NC(=O)[C@H](Cc3ccc(-c4ccccc4)cc3)NC(=O)[C@H](Cc3ccc(OCC(=O)O)cc3)NC2=O)c1 [Compound 1663] ({CH2CO}-[4Pal]Y(Carboxymethyl)D[Phe(3-Me)]Y(Carboxymethyl)[Bip]Y(Carboxymethyl)[NMeA][dL][Dab][Cha]VNC-NH2; thioether N-14)
13 | 0.79 | CC(C)C[C@@H]1NC(=O)[C@H](Cc2c[nH]c3ccccc23)NC(=O)[C@H](CC(=O)O)NC(=O)[C@H](Cc2ccc(O)cc2)NC(=O)[C@H](Cc2ccccc2)NC(=O)CSC[C@@H](C(=O)N[C@@H](C)C(N)=O)NC(=O)[C@H](CO)NC(=O)[C@H](C(C)C)NC(=O)[C@H](CC(C)C)NC(=O)[C@H](CC(=O)O)NC(=O)C(C(C)(C)C)NC(=O)[C@H](C)N(C)C(=O)[C@H](C(C)C)NC(=O)[C@H](Cc2ccc(-c3ccccc3)cc2)NC1=O (stereo partly drawn) [Compound 1827] ({CH2CO}-FYDWL[Bip]V[NMeA][ξTle]DLVSCA-NH2; thioether N-14)
14 | 0.13 | CC(C)C[C@@H]1NC(=O)[C@H](CCCNC(=N)N)NC(=O)[C@@H](Cc2cccc(F)c2)NC(=O)[C@H](C)N(C)C(=O)[C@H](CCCNC(=N)N)NC(=O)[C@H](Cc2ccc(-c3ccccc3)cc2)NC(=O)[C@H](C(C)C)NC(=O)[C@H](Cc2c[nH]c3ccccc23)NC(=O)[C@H](CC(=O)O)NC(=O)[C@H](Cc2ccc(O)cc2)NC(=O)[C@H](Cc2ccccc2)NC(=O)CSC[C@@H](C(=O)N[C@@H](C)C(N)=O)NC(=O)[C@H]([C@@H](C)O)NC(=O)[C@H](C(C)C)NC1=O [Compound 1071] ({CH2CO}-FYDWV[Bip]R[NMeA][dPhe(3-F)]RLVTCA-NH2; thioether N-14)
15 | 0.02 | CC[C@H](C)[C@@H]1NC(=O)[C@H](Cc2ccc(-c3ccccc3)cc2)NC(=O)[C@H](C(C)C)NC(=O)[C@H](Cc2c[nH]c3ccccc23)NC(=O)[C@H](CC(=O)O)NC(=O)[C@H](Cc2ccncc2)NC(=O)[C@H](Cc2ccncc2)NC(=O)CSC[C@@H](C(=O)N[C@@H](C)C(N)=O)NC(=O)[C@H]([C@@H](C)O)NC(=O)[C@H](C(C)C)NC(=O)[C@H](CC(C)C)NC(=O)[C@H](CCN)NC(=O)[C@@H](CC(C)C)NC(=O)[C@H](C)N(C)C1=O [Compound 1410] ({CH2CO}-[4Pal][4Pal]DWV[Bip]I[NMeA][dL][Dab]LVTCA-NH2; thioether N-14)
